According to patent publication US9084424B2, “N-benzyl heterocyclic carboxamides” (BAYER INTELLECTUAL PROPERTY GMBH, priority 2010, dated 2015):

Key:
[1] = log P by HPLC on reversed-phase column (EEC Directive 79/831 Annex V.A8); type: physicochemical; conditions: HPLC on reversed-phase column (C 18), 40° C., 0.1% aqueous formic acid and acetonitrile, linear gradient 10% to 90% acetonitrile
Summary of the method: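 Reversed-phase C18 HPLC at 40° C with a linear 10% to 90% acetonitrile gradient against 0.1% aqueous formic acid. Log P is read from retention time by linear interpolation between successive unbranched alkan-2-ones (C3–C16) of known log P. UV spectra from 200 to 400 nm, taken at chromatographic peak maxima, give lambda-max.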

Alternaria solani = assay: In vivo preventive test on Alternaria solani (tomato); conditions: preventive spray, 500 ppm of active ingredient, evaluated 7 days after inoculation
Summary of the method: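 Young tomato plants sprayed with compound formulated in DMF with alkylarylpolyglycolether emulsifier and diluted in water, then inoculated one day later with A. solani spore suspension. Kept 1 day at about 22 °C, 100% humidity, then about 20 °C, 96% humidity. Efficacy scored 7 days post-inoculation, 0% = untreated control, 100% = no disease.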

Pyrenophora teres = assay: In vivo preventive test on Pyrenophora teres (barley); conditions: preventive spray, 500 ppm of active ingredient, evaluated 7-9 days after inoculation
Summary of the method: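 Young barley plants were sprayed with compound formulated in N,N-dimethylacetamide/emulsifier and diluted with water, then inoculated with P. teres spores one day later. After 48 h at 22° C., 100% humidity, plants stood in a greenhouse (~20° C., ~80% humidity); efficacy versus untreated control was scored 7-9 days post-inoculation.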

Leptosphaeria nodorum = assay: In vivo preventive test on Leptosphaeria nodorum (wheat); conditions: preventive spray, 500 ppm of active ingredient, evaluated 7-9 days after inoculation
Procedure: In Vivo Preventive Test on Leptosphaeria nodorum (Wheat)
(§1) Solvent: 49 parts by weight of N,N-dimethylacetamide
(§2) Emulsifier: 1 part by weight of alkylaryl polyglycol ether
To produce a suitable preparation of active compound, 1 part by weight of active compound is mixed with the stated amounts of solvent and emulsifier, and the concentrate is diluted with water to the desired concentration.
To test for preventive activity, young plants are sprayed with a preparation of active compound at the stated rate of application. One day after this treatment, the plants are inoculated with an aqueous spore suspension of Leptosphaeria nodorum. The plants remain for 48 hours in an incubation cabinet at 22° C. and a relative atmospheric humidity of 100%. Then the plants are placed in a greenhouse at a temperature of approximately 22° C. and a relative atmospheric humidity of approximately 90%.
The test is evaluated 7-9 days after the inoculation. 0% means an efficacy which corresponds to that of the untreated control, while an efficacy of 100% means that no disease is observed.
Under these conditions, good (at least 70%) to excellent protection (at least 95%) is observed at a dose of 500 ppm of active ingredient with the following compounds from table D: […]

Puccinia triticina = assay: In vivo preventive test on Puccinia triticina (wheat); conditions: preventive spray, 500 ppm of active ingredient, evaluated 8 days after inoculation
Procedure: In Vivo Preventive Test on Puccinia triticina (Wheat)
as §1, §2
(§3) To produce a suitable preparation of active compound, 1 part by weight of active compound or active compound combination is mixed with the stated amounts of solvent and emulsifier, and the concentrate is diluted with water to the desired concentration.
(§4) To test for preventive activity, young plants are sprayed with the preparation of active compound or active compound combination at the stated rate of application.
After the spray coating has been dried, the plants are sprayed with a spore suspension of Puccinia triticina. The plants remain for 48 hours in an incubation cabinet at approximately 20° C. and a relative atmospheric humidity of approximately 100%.
The plants are placed in the greenhouse at a temperature of approximately 20° C. and a relative atmospheric humidity of approximately 80%.
The test is evaluated 8 days after the inoculation. 0% means an efficacy which corresponds to that of the untreated control, while an efficacy of 100% means that no disease is observed.

Septoria tritici = assay: In vivo preventive test on Septoria tritici (wheat); conditions: preventive spray, 500 ppm of active ingredient, evaluated 21 days after inoculation
Procedure: In Vivo Preventive Test on Septoria tritici (Wheat)
as §1, §2, §3, §4
After the spray coating has been dried, the plants are sprayed with a spore suspension of Septoria tritici. The plants remain for 48 hours in an incubation cabinet at approximately 20° C. and a relative atmospheric humidity of approximately 100% and afterwards for 60 hours at approximately 15° C. in a translucent incubation cabinet at a relative atmospheric humidity of approximately 100%.
The plants are placed in the greenhouse at a temperature of approximately 15° C. and a relative atmospheric humidity of approximately 80%.
The test is evaluated 21 days after the inoculation. 0% means an efficacy which corresponds to that of the untreated control, while an efficacy of 100% means that no disease is observed.

[2] = test system: Blumeria graminis f.sp. hordei; assay: In vivo preventive test on Blumeria graminis (barley); conditions: preventive spray, 500 ppm of active ingredient, evaluated 7 days after inoculation
Procedure: In Vivo Preventive Test on Blumeria graminis (Barley)
as §1, §2, §3, §4
After the spray coating has been dried, the plants are dusted with spores of Blumeria graminis f.sp. hordei.
The plants are placed in the greenhouse at a temperature of approximately 18° C. and a relative atmospheric humidity of approximately 80% to promote the development of mildew pustules.
The test is evaluated 7 days after the inoculation. 0% means an efficacy which corresponds to that of the untreated control, while an efficacy of 100% means that no disease is observed.

Work on CC(c1ncc(Cl)cc1Cl)N(C)C(=O)c1c(C(F)F)nn(C)c1F (stereo not shown) [Example 185] yielded a logP [1] of 2.92, an Efficacy (Alternaria solani) of 100% and an Efficacy (Pyrenophora teres) of 95%. For the same compound, the Efficacy (Leptosphaeria nodorum) was 95%, the Efficacy (Puccinia triticina) was 90% and the Efficacy (Septoria tritici) was 100%. The Efficacy [2] was 100%.
